# Assay results reported in US9200269B2, “β-glucuronidase inhibitor” (priority 2007, dated 2015).
# Read-outs that look alike come from different tables or passages of the source.
# Molecular target: T1, β-glucuronidase Type VII-A derived from Escherichia coli (Escherichia coli, UniProt P05804)
# T1 construct: purchased Sigma-Aldrich Corporation
# Assay: Inhibition of β-glucuronidase activity (PNPG substrate, absorbance at 400 nm)
# Assay type: biochemical
# Settings: for Inhibition rate (%) Concentration 0.001%: 0.001 wt % in reaction solution
# Procedure: 100 μL of a 2 mM PNPG aqueous solution, 40 μL of a 0.5 M phosphate buffer (pH 6.8), 38 μL of ion exchanged water and 2 μL of a 10 or 1 wt % dipropylene glycol (DPG) solution of various compounds or plant extracts were mixed in a bottle γ-ray sterilized in advance, and subsequently 20 μL of a β-glucuronidase aqueous solution adjusted to 16 units/mL was added, in order to allow the enzyme to react in a thermostat bath at 37° C. for 2 hours. Further, in the case of some of compounds, in addition to the above steps, the same experiment was performed using a 0.1 wt % DPG solution as well. As a result, the concentrations of the test compounds and plant extracts in the reaction solution were adjusted to 0.1, 0.01 and 0.001 wt %, respectively. Further, a product prepared by adding DPG in place of the above-mentioned compounds and plant extracts was used as a control, and a product prepared by adding ion exchanged water in place of an enzyme solution was used as a blank for each sample and control, and the respective products were allowed to react for 2 hours in the same manner. It should be noted that the plant extract sample was used as a solvent extract.
# The above-mentioned reaction solution was diluted with a 0.2 M glycine buffer (pH 10.4) and measured for its absorbance at a wavelength of 400 nm. The relative activity inhibition rate of a β-glucuronidase was determined by using the obtained measurement value in accordance with the following equation. Absorbance change of control=Absorbance of control−Absorbance of blank for each control Absorbance change of sample=Absorbance of sample−Absorbance of blank for each sample Activity inhibition rate (%)=[(Absorbance change of control−Absorbance change of sample)/Absorbance change of control]×100
# [1] = 0.01 wt % in reaction solution, 1.6 units/mL enzyme, 37° C., 2 hours, pH 6.8, read-out: Inhibition rate (%) Concentration 0.01%
# [2] = 0.1 wt % in reaction solution, 1.6 units/mL enzyme, 37° C., 2 hours, pH 6.8, read-out: Inhibition rate (%) Concentration 0.1%
# [3] = 0.01 wt % in reaction solution, 1.6 units/mL enzyme, 37° C., 2 hours, pH 6.8
# [4] = 0.1 wt % in reaction solution, 1.6 units/mL enzyme, 37° C., 2 hours, pH 6.8
# [5] = 1.6 units/mL enzyme, 37° C., 2 hours, pH 6.8
# [6] = 2 h, pH 6.8, read-out: Inhibition rate (%) Concentration 0.01%
# [7] = 2 h, pH 6.8, read-out: Inhibition rate (%) Concentration 0.1%
# T1 sequence (P05804 whole entry): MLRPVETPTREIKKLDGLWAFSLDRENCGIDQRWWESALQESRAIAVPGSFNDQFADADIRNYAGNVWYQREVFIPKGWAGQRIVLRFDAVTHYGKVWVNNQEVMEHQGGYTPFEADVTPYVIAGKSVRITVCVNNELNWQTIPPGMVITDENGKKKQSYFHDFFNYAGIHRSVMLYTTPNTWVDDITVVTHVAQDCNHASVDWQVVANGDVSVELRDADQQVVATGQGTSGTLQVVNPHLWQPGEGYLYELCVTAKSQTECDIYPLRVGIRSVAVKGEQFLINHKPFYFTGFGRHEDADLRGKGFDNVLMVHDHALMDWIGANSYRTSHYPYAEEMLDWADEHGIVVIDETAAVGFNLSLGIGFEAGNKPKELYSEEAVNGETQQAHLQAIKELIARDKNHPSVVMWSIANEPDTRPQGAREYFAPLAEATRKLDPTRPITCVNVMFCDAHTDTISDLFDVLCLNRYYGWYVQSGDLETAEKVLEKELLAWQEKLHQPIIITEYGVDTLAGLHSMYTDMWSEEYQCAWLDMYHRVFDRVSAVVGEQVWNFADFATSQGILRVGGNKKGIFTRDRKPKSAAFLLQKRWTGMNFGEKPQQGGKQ
Compound,inhibition at 0.01 wt % [1] [%],inhibition at 0.1 wt % [2] [%],Inhibition rate (%) Concentration 0.01% [3] [%],Inhibition rate (%) Concentration 0.1% [4] [%],further results
"O=CCc1ccccc1 [Phenylacetaldehyde, phenylacetaldehyde]",31.9,72.2,–,–,–
"C=CC(C)(CCC=C(C)C)OC(C)=O (stereo not shown) [Linalyl acetate, linalyl acetate]",62.6,95.8,–,–,–
vetiverol,–,–,88.0,97.1,–
"O=C1CCC=CCCCCCCCCCCO1 [4(5)-Cyclopentadecenolide, 4(5)-cyclopentadecenolide]",–,–,47.1,76.5,–
"CC(CC=O)CCCC(C)(C)O (stereo not shown) [Hydroxycitronellal, hydroxycitronellal]",24.2,85.3,–,–,–
"CC(=O)/C(C)=C/C1C(C)=CCCC1(C)C (stereo not shown) [γ-Methylionone, γ-methylionone]",–,–,84.1,98.5,Inhibition rate (%) Concentration 0.001% [5]: 22.0%
"CC1=CC(C)C(C=O)CC1 (stereo not shown) [Ligustral, dimethyltetrahydrobenzaldehyde]",–,–,30.1,76.2,–
3-methyl-4(5)-cyclopentadecen-1-one,–,–,99.1,98.8,Inhibition rate (%) Concentration 0.001% [5]: 92.4%
"COC1CCCCCCCCCCC1 [Palisandin, 1-methoxycyclododecane]",53.3,85,–,–,–
"C=CCc1ccc(O)c(OC)c1 [Eugenol, eugenol]",36.8,93.2,–,–,–
"CC(=O)OCC=Cc1ccccc1 [Cinnamyl acetate, cinnamyl acetate]",51.3,96.2,–,–,–
"CC(=O)OCCC(C)CCC=C(C)C (stereo not shown) [Citronellyl acetate, citronellyl acetate]",44.8,84.2,–,–,–
"CC(C)=CCCC(C)CCO (stereo not shown) [Citronellol, citronellol]",47.4,76.2,–,–,–
"CC1CCCCCCCCCCCCC(=O)C1 (stereo not shown) [3-Methylcyclopentadecanone, 3-methylcyclopentadecanone]",57.3,86.4,–,–,–
"CC(=O)/C=C/C1=C(C)CCCC1(C)C [β-Ionone, β-ionone]",–,–,40.2,81.1,–
"COc1ccc(C)cc1 [p-Cresyl methyl ether, p-cresyl methyl ether]",24,85.9,–,–,–
"CC1=CC[C@H](C(C)C)C=C1 (racemic) [α-Phellandrene, α-phellandrene]",–,–,50.0,93.6,–
"OC/C=C/c1ccccc1 [Cinnamic alcohol, cinnamic alcohol]",–,–,–,–,inhibition at 0.01 wt % [6]: 56.2%; inhibition at 0.1 wt % [7]: 93.5%
"O=C1CCCCC/C=C\CCCCCCCCO1 [7-Cyclohexadecenolide, 7-cyclohexadecenolide]",–,–,98.5,99.6,Inhibition rate (%) Concentration 0.001% [5]: 88.1%
"C=C(C)[C@@H]1CCC2=CC(=O)C[C@@H](C)[C@]2(C)C1 [Nootkatone, nootkatone]",80.8,95.2,–,–,–
"COc1cc(C=O)ccc1O [Vanillin, vanillin]",49.5,82.1,–,–,–
"CC(C=O)Cc1ccc(C(C)C)cc1 (stereo not shown) [Cyclamen aldehyde, cyclamen aldehyde]",–,–,82.7,87.5,Inhibition rate (%) Concentration 0.001% [5]: 27.4%
"CC(C)=CCCC(C)=CC=O [Citral, citral]",29.1,84.1,–,–,–
"O=CCCC=C1CC2CC1C1CCCC21 (stereo not shown) [Dupical, 4-(tricyclo[5.2.1.0^2,6]decylidene-8)butenal]",–,–,65.5,73.5,–
"Cc1ccc2c(c1)OCC(=O)CO2 [Calone, 7-methyl-3,4-dihydro-(2H)-1,5-benzodioxepin-3-one]",17.3,73.3,–,–,–
"CC(C)(O)CCCC1=CCC(C=O)CC1 (stereo not shown) [Lyral, 4-(4-hydroxy-4-methylpentyl)-3-cyclohexene-1-carboxyaldehyde]",51.6,94.4,–,–,–

Compound,inhibition at 0.01 wt % [1] [%],inhibition at 0.1 wt % [2] [%],Inhibition rate (%) Concentration 0.01% [3] [%],Inhibition rate (%) Concentration 0.1% [4] [%],further results
"CC/C=C\CCOC(=O)c1ccccc1 [cis-3-Hexenyl benzoate, cis-3-hexenyl benzoate]",45.1,80.6,–,–,–
"CC(C)=CCCC1=CCC(C=O)CC1 (stereo not shown) [Myrac aldehyde, 4-(4-methyl-3-pentenyl)-3-cyclohexene-1-carboxyaldehyde]",–,–,49.7,63.7,–
"O=C1CCCCCCCCCOCCCCCO1 [11-Oxa-16-hexadecanolide, 11-oxa-16-hexadecanolide]",26.8,62.8,–,–,–
"O=C1CCCCCCCCCCCCCC1 [Cyclopentadecanone, cyclopentadecanone]",35.6,73.3,–,–,–
"CC1=CCCC2(C)OC2CCC(C)=CCC1 (stereo not shown) [Cedroxide, 4,8,12-trimethyl-13-oxabicyclo-[10.1.0]trideca-4,8-diene]",40.1,82.6,–,–,–
"O=C1CCC=CCCCCCCCCCC1 [4-Cyclopentadecen-1-one, 4-cyclopentadecen-1-one]",93.5,99.1,–,–,Inhibition rate (%) Concentration 0.001% [5]: 67.2%
"CC(C)=CCC/C(C)=C/CO [Geraniol, geraniol]",56.8,79.8,–,–,–
"CCCCCC1=CCCC1=O [2-Pentylcyclopentenone, 2-pentylcyclopentenone]",–,–,93.3,97.8,–
"O=CCCc1ccccc1 [3-Phenylpropanal, 3-phenylpropanal]",23.3,81.7,–,–,–
"CC(C)=CCCC(C)CC#N (stereo not shown) [Citronellyl nitrile, citronellyl nitrile]",–,–,41.8,92.4,–
"CCCCCCCC1CCCC1=O (stereo not shown) [2-Heptylcyclopentanone, 2-heptylcyclopentanone]",17.1,70.6,–,–,–
"CC(C)CCOCCc1ccccc1 [Phenylethyl isoamyl ether, phenylethyl isoamyl ether]",60.8,88.8,–,–,–
"CC(C)c1ccc(C=O)cc1 [Cuminaldehyde, cuminaldehyde]",37.8,97.1,–,–,–
"CC(=O)OC(C)(C)C1CC=C(C)CC1 (stereo not shown) [Terpinyl acetate, terpinyl acetate]",–,–,65.5,94.7,–
"CC(C)=CCC/C(C)=C\CO [Nerol, nerol]",44,85.7,–,–,–
"C/C=C\C(=O)C1C(C)=CCCC1(C)C (stereo not drawn) [α-Damascone, α-damascone]",–,–,42.6,89.9,–
"CCC=CCCC=CC=O [2,6-Nonadienal, 2,6-nonadienal]",60.9,95.2,–,–,–
"CC/C=C\CC1=C(C)CCC1=O [cis-Jasmone, cis-jasmone]",–,–,77.2,99.2,Inhibition rate (%) Concentration 0.001% [5]: 24.8%
"COc1ccc(C=O)cc1 [Anisaldehyde, anisaldehyde]",–,–,–,–,inhibition at 0.01 wt % [6]: 15.3%; inhibition at 0.1 wt % [7]: 85.9%
"C=CC(C)(O)CCC=C(C)C (stereo not shown) [Linalool, linalool]",31.7,91,–,–,–
"O=C/C=C/c1ccccc1 [Cinnamic aldehyde, cinnamic aldehyde]",–,–,–,–,Inhibition rate (%) Concentration 0.001% [5]: 46.4%; inhibition at 0.01 wt % [6]: 96.8%; inhibition at 0.1 wt % [7]: 100%
"C=CCc1ccc(OC)cc1 [Estragole, estragole]",94.6,99.4,–,–,–
"CCC(=O)/C=C/C1C(C)=CCCC1(C)C (stereo not drawn) [α-Methylionone, α-methylionone]",–,–,57.5,91.1,–
"C/C=C/C(=O)C1=C(C)CCCC1(C)C [β-Damascone, β-damascone]",–,–,39.5,77.3,–
"CC(CCO)CCc1ccccc1 (stereo not shown) [Phenylhexanol, 3-methyl-5-phenyl-1-pentanol]",52.1,61.2,–,–,–
